Data as given in patent US20110045100A1, “Antimalarial Quinolines and Methods of Use Thereof” (GEORGETOWN UNIVERSITY, priority 2008, published 2011).

What was measured:
[1] = test system: Dd2 (chloroquine resistant strain of P. falciparum); assay: SYBR Green I antiplasmodial assay, strain Dd2; type: cell-based, Plasmodium falciparum; settings: strain Dd2
Text: Bennett T. N.; Paguio, M.; Gligorijevic, B.; Seudieu, C.; Kosar, A. D.; Davidson, E.; Roepe, P. D. Novel, rapid, and inexpensive cell-based quantification of antimalarial drug efficacy. Antimicrob. Agents Chemother. 2004, 48, 1807-1810; Smilkstein, M.; Sriwilaijaroen, N.; Kelly, J. X.; Wilairat, P.; Riscoe, M. Simple and inexpensive fluorescence-based technique for high-throughput antimalarial drug screening. Antimicrob. Agents Chemother. 2004, 48, 1803-1806; and Johnson, J. D.; Dennull, R. A.; Gerena, L.; Lopez-Sanchez, M.; Roncal, N. E.; Waters, N.C. Assessment and continued validation of the malaria SYBR green I-based fluorescence assay for use in malaria drug screening. Antimicrob. Agents Chemother. 2007, 51, 1926-1933. […] Drake, N. L.; Creech, H. J.; Garman, J. A.; Haywood, S. T.; Peck, R. M.; van Hook, J. O.; Walton, E. Synthetic antimalrials. The preparation of certain 4-aminoquinolines. J. Am. Chem. Soc. […] Trans. R. Soc. Trop. Med. Hyg. […] J. Parasitol. 1983, 69, 97-105. The selectivity index provides a quantitative measure of the antimalarial activity against CQR strains relative to that against sensitive strains and thus indicates promising drug discovery leads. […] This can be combined with the introduction of a third basic amino function which should further favor accumulation of the drug within the acidic food vacuole of the parasite.
The antiplasmodial activity of these compounds was measured versus a CQS (HB3) and a CQR (Dd2) strain using a standardized, inexpensive assay based on SYBR Green I intercalation. Bennett T. N.; Paguio, M.; Gligorijevic, B.; Seudieu, C.; Kosar, A. D.; Davidson, E.; Roepe, P. D. Antimicrob. Agents Chemother. 2004, 48, 1807-1810; Smilkstein, M.; Sriwilaijaroen, N.; Kelly, J. X.; Wilairat, P.; Riscoe, M. Antimicrob. Agents Chemother. 2004, 48, 1803-1806; and Johnson, J. D.; Dennull, R. A.; Gerena, L.; Lopez-Sanchez, M.; Roncal, N. E.; Waters, N.C. Antimicrob. Agents Chemother. 2007, 51, 1926-1933. […] De, D.; Krogstad, F. M.; Cogswell, F. B.; Krogstad, D. J. Am. J. Trop. Med. Hyg. 1996, 55, 579-583. […] The basic tertiary amino function in the side chain is commonly believed to be crucial for the accumulation of the drug within the acidic food DV.
Drug activities were assessed and IC50 were quantified essentially as described previously. Delarue, S.; Girault, S.; Maes, L.; Debreu-Fontaine, M. A.; Labaeid, M.; Grellier, P.; Sergheraert, C. Synthesis and in vitro and in vivo antimalarial activity of new 4-anilinoquinolines. J. Med. Chem. 2001, 44, 2827-2833; and O'Neill, P. M.; Willock, D. J.; Hawley, S. R.; Bray, P. G.; Storr, R. C.; Ward, S. A.; Park, B. K. Synthesis, antimalarial activity, and molecular modeling of tebuquine analogues. J. Med. Chem. 1997, 40, 437-448. The aminoquinolines were diluted using complete media under sterile conditions and plated in a 96 well plate format. Sorbitol synchronized cultures were utilized with >95% of the parasites at the ring stage. Cultures were diluted to give a working stock of 0.5% parasitemia and 2% hematocrit (final hematocrit 1% & 0.5% Parasitemia). The plates were incubated for 72 h at 37° C. After 72 h, 50 μL of 10×SYBR green I dye was added to each well, and the plate was incubated for 1 h at 37° C. Fluorescence was measured at 530 nm (490 nm excitation) using a spectra geminiEM plate reader. Data analysis was performed using sigma plot 9.0 software after downloading data in Excel format.

[2] = test system: μ-oxo dimeric heme; assay: Heme affinity measurement, μ-oxo dimeric heme; type: binding; settings: aqueous solution
Procedure: 1.5 mL cuvettes containing freshly prepared samples of 4.8 μM heme were titrated with increasing concentrations (0-50 μM) of drug. Following each addition, the sample was mixed and heme absorbance then recorded at 402 nm. Control experiments were performed by titrating 4.8 μM heme with similar volumes of solvent and no drug present. To measure affinity for μ-oxo dimeric heme, the procedure was similar except hemin was first converted to dimeric form in mild alkaline solution, followed by titration to pH 7.5 using Hepes buffer. The absorbance peak analysis was done using Microsoft excel and Ka were extracted from the ΔAbs402 plots via Scatchard analysis using Microsoft Excel and Sigma plot 9.0.1 software.

[3] = test system: hemozoin (Hz) formation; assay: Quantification of in vitro Hz formation inhibition; type: biochemical
Procedure: A stock solution of 5 mM hemin (Fluka) in 0.1M NaOH was prepared and stored as small aliquots at -20° C. Fresh aliquots were thawed daily to room temperature before use. Lecithin stock solutions were prepared by dissolving in distilled water to 10 mg/ml and similarly stored. 0.5 M propionate was used to buffer experiments in the pH range 5.2-5.6. The assay mixture (1 mL volumes) contained: 200 μL lecithin solution ([…] final) 20 μL hematin (100 μM final concentration) 20 μ[…] propionate buffer (X) μL drug (dependant on the concentration required 0-1000 μM). The addition sequence involved first adding the lecithin followed by heme, HCl, propionate buffer and finally the drug. Each sample was prepared in triplicate. Following addition of the reagents the samples were incubated at 37° C. with constant shaking for 18 h. After 18 h the assay was stopped by spinning the samples at 13,200 rpm for 10 minutes followed by carefully aspirating off the supernatant. The pellet was then resuspended in 50 mM bicarbonate buffer pH 9.0 (1 mL) and gently shaken at room temperature for 30 minutes to dissolve uncrystallized heme. The samples were then centrifuged as above and the supernatant removed. […] The samples were then dissolved in 0.1M NaOH to solubilize β-hematin to free heme and β-hematin formed was then quantified via heme absorbance at 402 nm. Calibration curves were prepared by titrating increasing amounts of heme in the same solvent vs. absorbance at 402 nm.

[4] = pKa determination by acid/base titration; type: physicochemical; settings: distilled water; measured; read-out: quinolyl N pKa
Procedure: SPARC pKa calculator is an online tool developed at the University of Georgia by S. W. Karickhoff, L. A. Carreira and S. H. Hilal. Experimental pKa were determined using an Accumet AB15 pH meter and a calomel electrode. 10 mM solutions of the drugs (as dibasic salts) were made in distilled H2O and titrated at room temperature (23.0±2.0° C.) using 0.1 M NaOH. Titration plots were generated and pKa's extracted via inflection points from the second derivative plots; (Δ^2pH/ΔV^2) vs. V, where V represents the volume of the titrant added and ΔV is the volume increment.

With CCN(CC)CCCCOc1ccnc2cc(Cl)ccc12 [compound 93, O-(7-Chloro-4-quinolyl)-4-(N,N-diethylamino)butanol] the “fold lower IC50 relative to 98” value [1] was 4 fold, the “affinity (association constant Ka) vs. μ-oxo dimer” value [2] was “quite similar” and the “fold higher IC50 for Hz inhibition relative to 98” value [3] was “roughly 5 fold”. For the same molecule, the “ability to inhibit Hz formation vs. that measured for CQ and 8” value ([3]; FIG. 26) was “significantly lower” and the pKa [4] was 4.5.
